Results on one molecule are retold here after patent publication US12370202B2, “Methods and compositions for inhibiting the NLRP3 inflammasome and/or LON protease” (TRITERPENOID THERAPEUTICS, INC., priority 2019, dated 2025).

For data set [1], the system named is 5T33MM cells. Briefly: 5T33MM syngeneic preclinical model of multiple myeloma. The data set is classed as in vivo. An excerpt:
FIG. 1 is a survival curve. Survival of mice receiving either ixazomib (IXZ) or CDDO-2P-Im starting 21 days after tumor cell injection (n=5 mice per group). CDDO-2P-Im is active in the […] preclinical model of multiple myeloma.
A well-characterized syngeneic model of MM was employed. Adoptive transfer of 5T33MM cells into C57BL/KaLwRij recipient mice invariably leads to MM bone disease, impaired hematopoietic function and death.
To monitor MM tumor progression in the 5T33MM preclinical model, a 5T33MM cell line that expresses either luciferase or GFP genes was established by transducing with lentiviral particles containing firefly luciferase and GFP genes (Amsibo, Cambridge, MA); cells were selected with FACS sorting for GFP expression and by puromycin-resistance. For these experiments, 1×10^6 5T33MM-luc cells were introduced by intravenous injection into C57BL/KaLwRij mice at 2 months of age. Bioluminescence (BLI) was measured by using the IVIS Imaging System 100 (Xenogen). At 3 weeks after 5T33MM cell inoculation (where mice have established disease by BLI), mice were randomized to receive either vehicle, CDDO-2P-IM ([…] daily administered by oral gavage (po), 5 days/week), or ixazomib (IXZ; 6 mg/kg per week, administered po every Monday, Wednesday and Friday).

For data set [2], the system named is 5T33MM cells. Briefly: MM cell proliferation (confluence), IncuCyte imaging. The data set is classed as cell-based, murine. The note with it: 72 hours. How it is done: FIG. 2 is a bar graph. CDDO-2P-Im inhibits proliferation of multiple myeloma cell line in vitro. 5T33MM, RPMI8226, and ARH77 cells were seeded in 96-well plates and incubated with CDDO-2P-Im (50 nM-150 nM). Confluence (cell proliferation) was measured using IncuCyte imaging after 72 hours. *p<0.01 compared to control.
FIG. 3 is a bar graph. […] Shown here are results for 5T33MM (50 nM TTX01/7.5 nM IXZ); RPMI8226 (100 nM TTX01/7.5 nM IXZ); and ARH77 (150 nM TTX01/10 nM IXZ). Confluence (cell proliferation) was measured using IncuCyte imaging after 72 hours.
To examine tumor-intrinsic effects of CDDO-2P-IM in the 5T33MM cell line and in human MM cells, conducted a series of in vitro studies was conducted. For these experiments, 96-well plates were first coated in poly-L-ornithine before cells were seeded (in triplicate), including the murine 5T33MM and the human RPMI8226, and ARH77 cell lines (15,000 cells per well). Cells were incubated in IncuCyte™ Live-Cell Analysis System for 72 hours (images were taken every 4 hours). To define dose-dependent effect of CDDO-2P-IM, cells were exposed to concentrations ranging from 50 nM to 150 nM. To examine potential synergy of CDDO-2P-IM with IXZ, MM cells were exposed to IXZ (7 nM-10 nM) either alone or in combination with CDDO-2P-IM.

In data set [3] the test system is NLRP3 inflammasome. Nature of the data set: NLRP3 inflammasome activation in LPS-primed BMDM, IL-1β ELISA. The data set is classed as cell-based, mouse. Here is the method: FIG. 4A depicts an experimental design and FIG. 4B is a bar graph. Ixazomib (IXZ) potentiation of NLRP3 inflammasome activation inhibited by CDDO-2P-Im. Bone marrow derived macrophages (BMDM) were treated with Ixazomib (IXZ) and LPS (100 ng/ml) for 20 hours. Primed-BMDM were treated with CDDO-2P-Im (100 nM) for 15 min, followed by stimulation of ATP (5 mM) for 45 min. Supernatant were analyzed by ELISA for IL-1β release.
FIG. 6 is a set of bar graphs. CDDO-Im, CDDO-2P-Im (right panel), and CDDO-3P-Im (left panel) inhibit IL-1β production by NLRP3 inflammasome activation. LPS primed-BMDM were treated with different doses of CDDO-Im, CDDO-2P-Im, or CDDO-3P-Im for 15 min before ATP (5 mM) was added for 45 min. Supernatant were analyzed by ELISA for IL-1β.
To explore the potential that CDDO-2P-IM may enhance the MM response to proteasome inhibitors via inhibition of inflammasome activity, the effect of CDDO-2P-IM on activation of the NLRP3 complex (as defined by IL-1β production), in the presence or absence of IXZ in primary mouse bone marrow derived macrophages (BMDM) was evaluated. In the experiment, BMDM were primed by lipopolysaccharide (LPS) in the presence or absence of IXZ for 4 hours, followed by a brief ([…]) exposure to CDDO-2P-IM after which inflammasome activation was triggered by ATP.
The effects of the pyridyl derivatives of CDDO-IM, (specifically, CDDO-2P-Im and CDDO-3P-Im) on NLRP3 inflammasome activation were tested in mouse BMDMs. Cells were first primed with LPS for 4 hours, then pretreated with specific doses of either CDDO-Im, CDDO-2P-IM or CDDO-3P-Im (30-1000 nM) for 15 min before ATP was added for another 45 min. CDDO-Im and its pyridyl derivatives inhibited the amount of caspase-p10 (an auto-processed fragment of caspase-1) released into cell culture supernatants in a dose-dependent manner as measured by Western blot (FIG. 5). […] The effect on caspase-1 activation is specific for the NLRP3 inflammasome as the AIM2 inflammasome activation by poly(dA:dT) was not inhibited by the synthetic CDDO-Im derivatives (data not shown).
In general terms: In an ELISA, binding on a coated surface is turned into a signal by an enzyme label.

Data set [4] relates to U251. Briefly: GBM cell growth (confluence), IncuCyte. Format: cell-based, human. Conditions: not shown. How it is done:
(§1) To define the capacity of CDDO-2P-IM to suppress the growth and viability of GBM, several well-characterized human GBM cell lines (U251, U-87MG, LN227, Gli36Δ5), primary cultures of patient-derived GBM cells (UVM04, D028), and normal human astrocytes (provided by Dr. Arti Gaur, Dartmouth College) were utilized.
(§2) The activity of CDDO-2P-IM in cultures of human GBM was assessed and similar nanomolar (nM) potency was observed. […] These changes in confluence observed by Incucyte® corresponded with a reduction in cell viability. Doses of CDDO-2P-IM that result in complete cell death of the LN227, U251 and U-87MG cell lines had no effect on the viability of primary human astrocytes in vitro (not shown).

The test system of data set [5] is primary cultures of patient-derived GBM cells. Nature of the data set: Cell viability in primary cultures of human GBM. Format: cell-based. How it is done: as §1, §2
The target of data set [6] is LONP1 (Homo sapiens, UniProt P36776). Nature of the data set: Binding to LONP1.
LONP1, sequence (P36776 68-959, species assumed): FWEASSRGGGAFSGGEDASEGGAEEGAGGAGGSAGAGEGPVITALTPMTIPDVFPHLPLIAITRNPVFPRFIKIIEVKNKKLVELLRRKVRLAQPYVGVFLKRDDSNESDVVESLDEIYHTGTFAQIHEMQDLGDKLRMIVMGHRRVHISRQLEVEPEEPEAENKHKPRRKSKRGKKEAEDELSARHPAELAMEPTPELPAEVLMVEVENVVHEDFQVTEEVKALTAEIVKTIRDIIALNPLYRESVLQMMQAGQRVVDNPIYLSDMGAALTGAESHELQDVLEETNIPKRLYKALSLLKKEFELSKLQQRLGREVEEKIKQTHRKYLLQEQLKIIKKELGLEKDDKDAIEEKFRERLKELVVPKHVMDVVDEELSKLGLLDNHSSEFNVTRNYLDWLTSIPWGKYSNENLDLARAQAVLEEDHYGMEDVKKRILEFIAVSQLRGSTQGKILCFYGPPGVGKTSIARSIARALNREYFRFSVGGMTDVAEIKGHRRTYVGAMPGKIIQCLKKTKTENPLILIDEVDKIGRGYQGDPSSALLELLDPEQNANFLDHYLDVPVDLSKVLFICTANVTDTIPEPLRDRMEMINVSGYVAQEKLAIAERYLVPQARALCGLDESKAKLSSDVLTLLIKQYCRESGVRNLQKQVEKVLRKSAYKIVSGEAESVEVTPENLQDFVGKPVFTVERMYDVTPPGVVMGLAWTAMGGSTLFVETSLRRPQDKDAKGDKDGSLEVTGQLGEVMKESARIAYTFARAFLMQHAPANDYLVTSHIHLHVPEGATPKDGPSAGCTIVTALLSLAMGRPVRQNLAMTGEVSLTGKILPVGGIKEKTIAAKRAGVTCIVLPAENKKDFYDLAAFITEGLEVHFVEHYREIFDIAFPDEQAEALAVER

SMILES strings stand for the structures.

In the case of `CC1(C)CC[C@]2(C(=O)n3cnc(-c4ccccn4)c3)CC[C@]3(C)[C@H](C(=O)C=C4[C@@]5(C)C=C(C#N)C(=O)C(C)(C)[C@@H]5CC[C@]43C)[C@@H]2C1` [CDDO-2P-Im, 1-[2-Cyano-3,12-dioxooleana-1,9(11)-dien-28-oyl]-4(-pyridin-2-yl)-1H-imidazole], the “anti-MM activity (survival) as a single agent” value in data set [1] (daily oral gavage 5 days/week from 3 weeks after 5T33MM-luc inoculation, compared to IXZ 6 mg/kg per week po) is recorded as “comparable to or better than IXZ”. In addition, in data set [1] (daily oral regimen), the tolerability result is “well tolerated”. Moreover, the “proliferation (confluence), combination with IXZ” value in data set [2] (50 nM TTX01/7.5 nM IXZ) was “act synergistically”. Further, the “proliferation (confluence), agent added alone” value in data set [2] (50 nM TTX01 or 7.5 nM IXZ alone) is reported as “only partially effective”. For the same molecule, the “proliferation (confluence)” value in data set [2] (50 nM-150 nM) was “significant dose-dependent suppressive effects”. For the same molecule, the “IL-1β release, IXZ potentiation of NLRP3 inflammasome activation” value in data set [3] (BMDM primed with IXZ and LPS, CDDO-2P-Im 100 nM 15 min before ATP (5 mM) 45 min) is reported as “inhibited”. Moreover, the “NLRP3 inflammasome activation (IL-1β production)” value in data set [3] (BMDM primed with LPS in absence of IXZ, ATP trigger) was “direct suppression”. Moreover, in data set [3] (LPS primed BMDM, different doses (30-1000 nM) 15 min before ATP (5 mM) 45 min, ELISA), the “IL-1β production by NLRP3 inflammasome activation” value was “inhibit”. Further, the “confluence (growth)” value in data set [4] was “dose-dependent reduction”. In addition, the “concentrations at which a significant reduction in cell viability was observed” value in data set [5] is reported as “below 100 nM”. Further, the “binding to LONP1” value in data set [6] is on record as “shown to bind LONP1”.
